Measured values published in patent US7842808B2, “Anti-migraine spirocycles” (Bristol-Myers Squibb Company, priority 2002, dated 2010).
pEC50, pIC50: −log10 of the molar value.

Assays:
[1] = target: T1, CGRP receptor (SK-N-MC cell membranes) (Homo sapiens, UniProt O60894+Q16602); test: CGRP Binding Assay ([125I]-CGRP radioligand binding, SK-N-MC homogenate); conditions: displacement of [125I]-CGRP, SK-N-MC homogenate; read-out: CGRP binding IC50
T1 construct: endogenous in cells; host or cells: SK-N-MC cells (membrane homogenate)

[2] = target: T2, human CGRP receptor (SK-N-MC cells) (Homo sapiens, UniProt O60894+Q16602); test: Cyclic AMP Assay, functional antagonism of CGRP-induced cyclic AMP formation; assay type: cell-based; conditions: SK-N-MC cells, 0.3 nM CGRP; read-out: cAMP Function IC50
T2 construct: SK-N-MC cells that endogenously express the human CGRP receptor; endogenous in cells; host or cells: SK-N-MC cells
Method in brief: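 SK-N-MC cells, which endogenously express human CGRP receptor, stimulated with 0.3 nM CGRP with or without compound for 30 min at room temperature. Cellular cAMP extracted by lysis and quantified by SPA radioimmunoassay; IC50 from inhibition of CGRP-induced cAMP.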

[3] = target: T2, human CGRP receptor (SK-N-MC cells); test: Schild analysis of CGRP stimulated cAMP production; assay type: cell-based; conditions: for slope: Schild plot slope
[4] = tested on: human cerebral vessels (CGRP-induced dilation); test: Ex Vivo Human Cerebral Artery Assay, reversal of CGRP-induced relaxation; conditions: reversal of 1 nM hCGRP-induced relaxation, vessels pre-contracted with 10 mM KCl
Method in brief: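 Autopsy human cerebral artery rings (4-5 mm) in Krebs buffer, 37 °C, pH 7.4, carbogen; primed with 100 mM KCl, pre-contracted with 10 mM KCl and fully dilated with 1 nM hCGRP. Antagonists added cumulatively in half-log steps; tension recorded as % reversal of CGRP relaxation, EC50 by four-parameter logistic fit per vessel.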

T2 sequence (Q16602 23-461): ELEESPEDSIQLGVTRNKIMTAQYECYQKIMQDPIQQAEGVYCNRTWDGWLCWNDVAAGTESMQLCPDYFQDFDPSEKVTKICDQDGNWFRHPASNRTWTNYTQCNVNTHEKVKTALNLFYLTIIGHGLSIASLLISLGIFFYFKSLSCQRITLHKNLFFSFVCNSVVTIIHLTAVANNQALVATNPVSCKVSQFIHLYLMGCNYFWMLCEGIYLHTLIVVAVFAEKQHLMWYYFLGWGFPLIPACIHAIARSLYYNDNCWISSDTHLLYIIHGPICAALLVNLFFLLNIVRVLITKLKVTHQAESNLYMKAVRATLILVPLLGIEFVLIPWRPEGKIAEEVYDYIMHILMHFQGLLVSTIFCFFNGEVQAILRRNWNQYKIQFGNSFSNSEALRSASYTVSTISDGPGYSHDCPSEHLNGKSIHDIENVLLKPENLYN
T2 sequence (O60894 27-148): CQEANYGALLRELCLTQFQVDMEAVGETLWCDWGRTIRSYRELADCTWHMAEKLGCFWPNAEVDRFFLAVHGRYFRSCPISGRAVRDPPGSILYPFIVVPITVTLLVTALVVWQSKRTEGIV
T1 sequence (Q16602 23-461): as the sequence (Q16602 23-461) above
T1 sequence (O60894 27-148): as the sequence (O60894 27-148) above

pIC50 [1]	pIC50 [2]	slope [3]	pEC50 [4]	Kb ([3]; Schild analysis, dissociation constant of the antagonist, read-out: Kb) [nM]	Structure (SMILES)
> 8.00	> 8.00	1.3	> 8.00	–	Cc1cc(CC(NC(=O)N2CCC(N3Cc4ccccc4NC3=O)CC2)C(=O)N2CCC(N3CCCCC3)CC2)cc2cn[nH]c12 (racemic) [Example 16, (±)-4-(2-Oxo-1,4-dihydro-2H-quinazolin-3-yl)-piperidine-1-carboxylic acid[2-[1,4′]bipiperidinyl-1′-yl-1-(7-methyl-1H-indazol-5-ylmethyl)-2-oxo-ethyl]-amide]
> 8.00	> 8.00	1	> 8.00	0.016	Cc1cc(CC(CC(=O)N2CCC(N3Cc4ccccc4NC3=O)CC2)C(=O)N2CCC(N3CCCCC3)CC2)cc2cn[nH]c12 (racemic) [Example 69, (±)-1-[1,4′]Bipiperidinyl-1′-yl-2-(7-methyl-1H-indazol-5-ylmethyl)-4-[4-(2-oxo-1,4-dihydro-2H-quinazolin-3-yl)-piperidin-1-yl]-butane-1,4-dione]
